Test [1] has as its target T1, Kynurenine--oxoglutarate transaminase 1 (Homo sapiens) (UniProt Q16773).
T1 sequence (whole entry): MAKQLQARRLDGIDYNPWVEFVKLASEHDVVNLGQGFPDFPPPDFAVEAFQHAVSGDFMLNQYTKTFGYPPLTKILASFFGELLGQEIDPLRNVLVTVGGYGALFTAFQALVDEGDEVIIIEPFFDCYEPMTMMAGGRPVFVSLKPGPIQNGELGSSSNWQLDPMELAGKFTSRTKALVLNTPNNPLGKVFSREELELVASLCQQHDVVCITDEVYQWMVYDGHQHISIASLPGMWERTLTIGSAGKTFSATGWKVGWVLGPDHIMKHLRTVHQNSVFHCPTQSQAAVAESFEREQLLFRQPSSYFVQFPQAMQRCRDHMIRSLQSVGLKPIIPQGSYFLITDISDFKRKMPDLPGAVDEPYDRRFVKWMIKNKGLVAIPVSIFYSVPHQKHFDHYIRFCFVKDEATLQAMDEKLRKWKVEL
The experiment in a line: Inhibition of human recombinant KAT1 expressed in Sf9 cells assessed as decrease in enzyme activity at 25 % ligand concentration. Set-up: scale not given: the % may be the effect or the level left.

Test [2] has as its target T1, Kynurenine--oxoglutarate transaminase 1 (Homo sapiens). The experiment in a line: (§1) Inhibition of human recombinant KAT1 expressed in Sf9 cells.
The target in test [3] is T2, Kynurenine--oxoglutarate transaminase 1 (Homo sapiens, UniProt Q16773).
T2 sequence (Q16773 whole entry): T1 sequence (whole entry)
Described as §1.

Data on seven molecules can be found in ChEMBL document CHEMBL1138442, “Structural insight into the inhibition of human kynurenine aminotransferase I/glutamine transaminase K” (J Med Chem, 2009).

pIC50: −log10 of the molar value. Activity calls are given as the source filed them. No cut-off for these calls is given here.

Consider `OCC(O)CO`, for which the Activity in test [1] came out at 10%.

For the molecule `O=C(O)/C=C/c1c[nH]c2ccccc12`, the outcome in test [2] was Active.

As to `O=C(O)C(O)Cc1c[nH]c2ccccc12` (racemic), the negative-log IC50 (pIC50) in test [3] was 3.66.

Consider `O=C(O)C(=O)Cc1c[nH]c2ccccc12`, for which the outcome in test [2] was Active.

For `O=C(O)CCc1c[nH]c2ccccc12` [INDOLYLPROPIONIC ACID], the pIC50 in test [3] is 3.85.

For `O=C(O)Cc1c[nH]c2ccccc12`, the result in test [2] was Active.

Turning to `N[C@@H](Cc1c[nH]c2ccccc12)C(=O)O`, the outcome in test [2] was Active.

Broadly, the pIC50 is −log10 of the IC50, conventionally taken in molar units.
